Measurements taken from patent US4284620A, “N-(2-Hydroxyethyl)-2,4,6-triiodo-3,5-bis-(2-keto-L-gulonamido)benzamide and radiological compositions containing same” (Mallinckrodt, Inc., priority 1979, dated 1981).
≈ marks a conversion by molar mass, not a printed value. Like-named read-outs stand apart in the source and are kept apart here.

How the values were obtained:
[1] = Stability in aqueous solution by tlc and lc analysis; format: physicochemical
Method: (§1) Nmr data are consistent with the assigned structure IX. The compound softens with darkening at 233°-238° and decomposes above 240°.

Solubility in water = format: physicochemical
Method: as §1
Elemental analysis; Calcd for C21 H26 I3 N3 O14 (after correction for 3.58% H2 O): C, 26.29; H, 3.13; I, 39.67; N, 4.38; Found: C, 26.20; H, 3.12; N, 4.09; I, not determined.

[2] = system: vascular and urinary systems; experiment: Radiographic visualization in mouse after intravenous injection; format: in vivo; conditions: I.V.
Method: A female mouse (19 g) was anesthetized with sodium pentobarbital (60 mg/kg, i/p.).

in vivo [3] = conditions: mouse, in vivo
Text: (§2) The following pharmacological studies were run on the N-(2-hydroxyethyl)-2,4,6-triiodo-3,5-bis-(2-keto-L-gulonamido)benzamide prepared according to Method B (PRODUCT).
(§3) Employing a slightly modified version of the technique developed by Haley and McCormick (Brit. J. Pharmacol. 12: 12-15, 1957), young adult male and female Swiss mice received injections of a solution of the PRODUCT directly into lateral ventricles and brain tissue.

Swiss mice [4] = experiment: Acute Intracerebral Toxicity in Mice; conditions: mice, intracerebral, 350-450 mg I/ml, seven day observation; 95% confidence limits 560-4806
Text: as §2, §3

in vivo [5] = conditions: mouse, in vivo, iv
Method: as §2
(§4) A solution of the PRODUCT was injected into the lateral tail vein of yound adult male and female Swiss mice at a rate of 1 ml/min.

Swiss mice [6] = experiment: Acute Intravenous Toxicity in Mice; conditions: mice, intravenous, 400 mg I/ml, 1 ml/min, seven day observation; 95% confidence limits 16,499-20,075
Method: as §2, §4

subarachnoid space = experiment: Radiographic visualization in rat after intracisternal injection; format: in vivo; conditions: 175 mg I/kg (37% I solution) intracisternally, 10 seconds after administration
Method: A pentobarbital-anesthetized rat (233 gm) received 175 mg I/kg (37% I solution) of the compound intracisternally.

in vivo [7] = conditions: rat, in vivo
Text: as §2
(§5) A variation of the technique described by Melartin et al. (Invest. Radiol. 5: 13-21, 1970) was utilized to evaluate lethal effects of a solution of the PRODUCT after injection into cerebrospinal fluid at the cisterna magna. Young adult male and female Sprague Dawley rats were used. After dosing, the animals were housed individually and observed for immediate reactions and periodically for a two day observation period.

Sprague Dawley rats = experiment: Acute Intracisternal Toxicity in Rats; conditions: rats, intracisternal, 400 mg I/ml, two day observation; 95% confidence limits 462-655
Text: as §2, §5

dogs = experiment: Acute Intracisternal Neurotoxicity in Dogs; conditions: dog, in vivo
Method: (§6) Adult dogs of either sex were employed for this procedure and were briefly anesthetized with thiopentol sodium during the injection of a solution of the PRODUCT. The compound was administered into cerebrospinal fluid at the cisterna magna at varying concentrations but at a constant 0.5 ml/kg volume dose. Animals were thereafter observed for neurotoxicity with the following results: […]

[8] = Acute Intracisternal Neurotoxicity in Dogs; conditions: dog, in vivo; dogs, intracisternal, 244 mg I/kg; read-out: Respiratory arrest (death)
Method: as §6

## O=C(Nc1c(I)c(NC(=O)C(=O)[C@@H](O)[C@H](O)[C@@H](O)CO)c(I)c(C(=O)NCCO)c1I)C(=O)[C@@H](O)[C@H](O)[C@@H](O)CO [IX, N-(2-Hydroxyethyl)-2,4,6-triiodo-3,5-bis-(2-keto-L-gulonamido)benzamide]
[1]
  stable in aqueous solution: stable in aqueous solution
Solubility in water; Method A product, read-out: highly water soluble
  solubility: ≥ 1000 mg/mL
Solubility in water; Method B product, read-out: solubility
  solubility: 1000 mg/mL (≈ 1080 mM)
[2]; female mouse, 10,000 mg I/kg (37% I solution), 5 seconds after administration
  visualization of the vascular system, whole body left lateral radiograph: good visualization of the vascular system
[2]; mouse, 30 seconds after contrast administration
  images of the vascular system, posteroanterior radiograph: good images of the vascular
[2]; mouse, 5 minutes after contrast administration
  images of the urinary system, posteroanterior radiograph: good images of the vascular and urinary systems
In vivo [3]
  LD50 at 168 h: 3980 mg/kg
Swiss mice [4]
  LD50: 1,640 mg I/kg
In vivo [5]
  LD50 at 168 h: 44200 mg/kg
Swiss mice [6]
  LD50: 18,200 mg I/kg
Subarachnoid space
  visualization of the subarachnoid space in the upper cervical, cisternal and basal cistern regions: good visualization of the subarachnoid space
In vivo [7]
  LD50 at 48 h: 1340 mg/kg
Sprague Dawley rats
  LD50: 550 mg I/kg
dogs
  Minimum Convulsion Dose: > 244 mg I/kg
[8]
  mortality: 50%
